According to PMC6537213, “Ellagic acid microspheres restrict the growth of Babesia and Theileria in vitro and Babesia microti in vivo” (Parasites & Vectors, 2019):

Legend:
[1] = tested on: Babesia bovis (Texas strain); assay: in vitro growth inhibition assay (SYBR Green I fluorescence), single drug and 1:1 combination; type: cell-based; settings: for IC50: Babesia bovis, in Bos taurus, 96 h, B. bovis in vitro culture, 4 days
Description: (§1) A microaerophilic stationary-phase culture system was used to maintain Babesia parasite cultures for a long time. Briefly, B. caballi (USDA strain) was grown using equine red blood cells (RBCs) in GIT medium supplemented with 40% equine serum. Theileria equi (USDA strain) was grown in equine RBCs in Medium 199 (M199; Sigma-Aldrich, Tokyo) supplemented with 40% equine serum, and hypoxanthine (MP Biomedicals, Santa Ana, CA, USA) at a final concentration of 13.6 μg/ml was used as a vital supplement. Babesia bovis (Texas strain) and B. bigemina (Argentina strain) were grown in bovine RBCs in M199 medium supplemented with 40% bovine serum. Meanwhile, B. divergens (Germany strain) was grown in bovine RBCs in medium RPMI 1640 (Sigma-Aldrich, Tokyo) supplemented with 40% bovine serum. All media included 60 U/ml penicillin G, 60 μg/ml streptomycin and 0.15 μg/ml amphotericin B (Sigma-Aldrich, St. Louis, MO, USA) to prevent bacterial contamination. The cultures were incubated at 37 °C in a humidified chamber with an atmosphere of 5% CO2, 5% O2 and 90% N2. Babesia microti (Munich strain) was recovered from − 80 °C stock, intraperitoneally injected in two 8-week old female BALB/c mice (Clea Japan, Tokyo, Japan), and the parasitemia was monitored every 2 days. The mice were euthanized using an anesthesia system containing isoflurane after parasitemia reached approximately 30%, and blood was collected by cardiac puncture to initiate the in vivo experiment. The animal experiment was conducted in accordance with the Regulations for Animal Experiments of Obihiro University of Agriculture and Veterinary Medicine, Japan (animal experiment accession number: 290168).
(§2) Assays were performed in accordance with the previously described protocol. Briefly, B. bovis, B. bigemina, B. divergens, B. caballi and T. equi cultures were harvested and adjusted to 1% parasitemia with fresh RBCs to start the inhibition assay. The assays were carried out using 96-well microtiter plates where only the 60 inner wells were used, while the peripheral wells were filled with sterile distillate water to reduce evaporation during incubation. In five 96-well plates, a volume of 2.5 µl each of B. bigemina- and B. bovis-iRBCs and 5 µl each of B. divergens-, B. caballi- and T. equi-iRBCs were added to each well in triplicate and mixed with a culture medium containing the drug concentrations to a total volume of 100 µl. Various concentrations of EA, β-CD EA, APSP EA, DA, CF and AQ were dissolved in a culture medium using two-fold dilution. Wells containing DMSO at a final concentration of 0.4% and iRBCs were used as a positive control, while wells with non-infected RBCs and culture medium were used as a negative control. Additionally, a drug combination assay was performed in parallel with the single drug assay at a constant ratio of 1:1, as described previously. […] The plates were incubated in a humidified incubator with 5% CO2, 5% O2 and 90% N2 for 4 days without changing the medium. On day 4, 100 µl of a lysis buffer containing 2 × SG1 was added to each well. The plates were wrapped with aluminum foil to avoid direct light exposure and incubated at room temperature. After 6 h, fluorescence values were measured using a fluorescence spectrophotometer (Fluoroskan Ascent; Thermo LabSystems, Oceanside, CA, USA) with excitation and emission wavelengths of 485 and 518 nm, respectively. The fluorescence data were subtracted from the negative control and used to calculate the IC50. To calculate the degree of association, the growth-inhibition values obtained were entered into CompuSyn software, based on the combination index (CI) values. […] The experiments were repeated three times.

[2] = tested on: Theileria equi (USDA strain); assay: as above; type: cell-based; settings: for IC50: Theileria equi, 96 h, T. equi in vitro culture, 4 days
Description: as §1, §2

[3] = tested on: mouse embryonic fibroblast (NIH/3T3) cell line; assay: cytotoxicity assay (CCK-8); type: cell-based; settings: for EC50: Mus musculus, NIH3T3, NIH/3T3 cells, 24 h exposure, CCK-8; for inhibition of cell viability: NIH/3T3
Description: (§3) The MDBK cell line was maintained in 75 cm^2 culture flasks with Minimum Essential Medium Eagle (MEM; Gibco, Grand Island, NY, USA), while Dulbecco’s Modified Eagle’s Medium (DMEM; […] Each medium was supplemented with 10% fetal bovine serum, 0.5% penicillin/streptomycin (Gibco), and an additional 1% glutamine. Every 3 to 4 days, the medium was changed, and the cells were incubated until approximately 80% confluent. The cells were free from mycoplasma contamination after being checked by staining with 4,6-diamidino-2-phenylindole dihydrochloride (DAPI; Sigma-Aldrich, St. Louis). The cell detachment from the culture flask was done using TrypLE^TM Express (Gibco) after washing two times with Dulbecco’s phosphate-buffered saline (DPBS). Subsequently, viable cells were counted using a Neubauer Improved C-Chip (NanoEnTek Inc., Seoul, Korea) after staining with 0.4% trypan blue solution. The drug-exposure viability assay was performed in accordance with the recommendation for the Cell Counting Kit-8 (CCK-8; Dojindo, Kumamoto, Japan). Briefly, in a 96-well plate, 100 µl of cells at a density of 5 × 10^4 cells/ml were seeded per well and allowed to attach to the plate for 24 h at 37 °C in a humidified incubator with 5% CO2. Ten microliters of drug diluted two-fold were added to each well to a final concentration of 0.781 to 800 µM in triplicate. Wells with only a culture medium were used as blanks, while wells containing cells and a medium with 0.5% DMSO were used as positive controls. Drug exposure lasted for 24 h. After 24 h, 10 µl of CCK-8 was added, and the plate was further incubated for 3 h. Absorbance was measured at 450 nm using a microplate reader.

[4] = tested on: Madin-Darby bovine kidney (MDBK) cell line; assay: cytotoxicity assay (CCK-8); type: cell-based; settings: for EC50: Bos taurus, 24 h, MDBK cells, 24 h exposure, CCK-8; for EC50 / inhibition of cell viability: MDBK
Description: as §3

[5] = tested on: human foreskin fibroblast (HFF) cell line; assay: cytotoxicity assay (CCK-8); type: cell-based; settings: for EC50: Homo sapiens, HFF cells, 24 h exposure, CCK-8
Description: as §3

[6] = tested on: B. bigemina (Argentina strain); assay: in vitro growth inhibition assay (SYBR Green I fluorescence), single drug and 1:1 combination; type: cell-based, Babesia bigemina; settings: for IC50: Babesia bigemina, 96 h, B. bigemina in vitro culture, 4 days
Description: as §1
(§4) Assays were performed in accordance with the previously described protocol. Briefly, B. bovis, B. bigemina, B. divergens, B. caballi and T. equi cultures were harvested and adjusted to 1% parasitemia with fresh RBCs to start the inhibition assay. The assays were carried out using 96-well microtiter plates where only the 60 inner wells were used, while the peripheral wells were filled with sterile distillate water to reduce evaporation during incubation. In five 96-well plates, a volume of 2.5 µl each of B. bigemina- and B. bovis-iRBCs and 5 µl each of B. divergens-, B. caballi- and T. equi-iRBCs were added to each well in triplicate and mixed with a culture medium containing the drug concentrations to a total volume of 100 µl. Various concentrations of EA, β-CD EA, APSP EA, DA, CF and AQ were dissolved in a culture medium using two-fold dilution. Wells containing DMSO at a final concentration of 0.4% and iRBCs were used as a positive control, while wells with non-infected RBCs and culture medium were used as a negative control. Additionally, a drug combination assay was performed in parallel with the single drug assay at a constant ratio of 1:1, as described previously. […] The plates were incubated in a humidified incubator with 5% CO2, 5% O2 and 90% N2 for 4 days without changing the medium. On day 4, 100 µl of a lysis buffer containing 2 × SG1 was added to each well. The plates were wrapped with aluminum foil to avoid direct light exposure and incubated at room temperature. After 6 h, fluorescence values were measured using a fluorescence spectrophotometer (Fluoroskan Ascent; Thermo LabSystems, Oceanside, CA, USA) with excitation and emission wavelengths of 485 and 518 nm, respectively. The fluorescence data were subtracted from the negative control and used to calculate the IC50. […]

B. caballi (USDA strain) = assay: as above; type: cell-based, Babesia caballi; settings: for IC50: Babesia caballi, 96 h, B. caballi in vitro culture, 4 days
Description: as §1, §4

P. falciparum = tested on: P. falciparum; parameters: method as in PMID 19015354; settings: cited from earlier work
[7] = tested on: B. divergens (Germany strain); assay: in vitro growth inhibition assay (SYBR Green I fluorescence), single drug and 1:1 combination; type: cell-based, Babesia divergens; settings: for IC50: Babesia divergens, 96 h, B. divergens in vitro culture, 4 days
Description: as §1, §4

L. major = tested on: L. major; parameters: method as in PMID 28643086; settings: cited from earlier work
[8] = tested on: Babesia microti (Munich strain); assay: in vivo growth inhibition and drug combination assays in B. microti-infected BALB/c mice; settings: for peak parasitemia level: 5 days
Description: as §1
In vivo growth inhibition assays of EA, β-CD EA and APSP EA were performed in B. microti-infected BALB/c mice in accordance with the previous protocol in two separate trials. […] The mice in groups 2–8 were intraperitoneally (i.p.) injected with 0.5 ml of inoculum (1 × 10^7 B. microti-iRBCs). Group 1 was left uninfected and untreated as a negative control. When the average parasitemia in all mice reached 1%, drug treatment was initiated for 5 consecutive days. […] DA at a concentration of 25 mg/kg body weight (BW) was administrated i.p. to the third group as a reference drug control.

B. microti = assay: nested PCR detection of B. microti ss-rRNA gene in blood of treated mice; type: in vivo, Babesia microti; settings: day 42; 20 mg/kg AQ
[9] = EC50 NIH/3T3 / IC50 B. bigemina
[10] = EC50 NIH/3T3 / IC50 B. divergens

SMILES | IC50 [1] [µM] | IC50 [2] [µM] | Selective indices NIH/3T3 [3, 9] | Selective indices NIH/3T3 [3, 10] | Selective indices NIH/3T3 ([3]; EC50 NIH/3T3 / IC50 T. equi) | EC50 [3] [µM] | EC50 [4] [µM] | Selective indices MDBK ([4]; EC50 MDBK / IC50 B. bigemina) | Selective indices MDBK ([4]; EC50 MDBK / IC50 B. divergens) | Selective indices MDBK ([4]; EC50 MDBK / IC50 T. equi) | Selective indices HFF ([5]; EC50 HFF / IC50 B. bigemina) | Selective indices HFF ([5]; EC50 HFF / IC50 B. divergens) | Selective indices HFF ([5]; EC50 HFF / IC50 T. equi) | EC50 [5] [µM] | IC50 [6] [µM] | IC50 (B. caballi (USDA strain)) [µM] | IC50 [7] [µM] | other results
O=c1oc2c(O)c(O)cc3c(=O)oc4c(O)c(O)cc1c4c23 [EA, Ellagic acid] | 9.58 ± 1.47 | 7.46 ± 0.6 | > 101.3 | > 148.1 | > 106.7 | > 800 | > 800 | > 101.3 | > 148.1 | > 106.7 | > 101.3 | > 148.1 | > 106.7 | > 800 | 7.87 ± 5.8 | 3.29 ± 0.42 | 5.41 ± 2.8 | concentration that significantly inhibited the growth ([1]; B. bovis, t-test vs control): 0.078 µM; concentration that significantly inhibited the growth ([2]; T. equi, t-test vs control): 0.125 µM; Selective indices NIH/3T3 ([3]; EC50 NIH/3T3 / IC50 B. bovis): > 83.3; inhibition of cell viability ([3]; 800 µM): did not show any inhibition; Selective indices MDBK ([4]; EC50 MDBK / IC50 B. bovis): > 83.3; inhibition of cell viability ([4]; 800 µM): did not show any inhibition; Selective indices HFF ([5]; EC50 HFF / IC50 B. bovis): > 83.3; concentration that significantly inhibited the growth ([6]; B. bigemina, t-test vs control): 0.078 µM; concentration that significantly inhibited the growth (B. caballi (USDA strain); B. caballi, t-test vs control): 0.125 µM; IC50 (P. falciparum): 0.33 µM; concentration that significantly inhibited the growth ([7]; B. divergens, t-test vs control): 0.125 µM; IC50 (L. major): 9.8 μg/ml^e; peak parasitemia level ([8]; first assay, 35 mg/kg EA i.p., peak on day 8, DDW control 57.7%): 29.5%
O=C1C(O)=C([C@H]2CC[C@H](c3ccc(Cl)cc3)CC2)C(=O)c2ccccc21 [AQ, atovaquone] | 0.039 ± 0.002 | 0.095 ± 0.0655 | ˃ 12.7 | ˃ 18.5 | ˃ 13.4 | > 100 | > 100 | ˃ 12.7 | ˃ 18.5 | ˃ 13.4 | ˃ 12.7 | ˃ 18.5 | ˃ 13.4 | > 100 | 0.701 ± 0.04 | 0.102 ± 0.0141 | 0.038 ± 0.002 | Selective indices NIH/3T3 ([3]; EC50 NIH/3T3 / IC50 B. caballi): ˃ 30.4; inhibition of cell viability ([3]; 100 µM, separate assay): did not show any inhibition; Selective indices MDBK ([4]; EC50 MDBK / IC50 B. caballi): ˃ 30.4; inhibition of cell viability ([4]; 100 µM, separate assay): did not show any inhibition; Selective indices HFF ([5]; EC50 HFF / IC50 B. caballi): ˃ 30.4; inhibition of cell viability ([5]; HFF, 100 µM, separate assay): did not show any inhibition; parasite DNA in blood (nPCR) (B. microti): not detected; day p.i. from which parasitemia was undetectable by microscopic examination ([8]; second assay, 20 mg/kg AQ): 15 day p.i.; peak parasitemia level ([8]; second assay, 20 mg/kg AQ oral, DDW control 58.3%): 4.3%
